Biological target: T1, MLLT1 (Homo sapiens, UniProt Q03111)
T1 construct: host or cells: MV4-11
T1 sequence (Q03111 1-559): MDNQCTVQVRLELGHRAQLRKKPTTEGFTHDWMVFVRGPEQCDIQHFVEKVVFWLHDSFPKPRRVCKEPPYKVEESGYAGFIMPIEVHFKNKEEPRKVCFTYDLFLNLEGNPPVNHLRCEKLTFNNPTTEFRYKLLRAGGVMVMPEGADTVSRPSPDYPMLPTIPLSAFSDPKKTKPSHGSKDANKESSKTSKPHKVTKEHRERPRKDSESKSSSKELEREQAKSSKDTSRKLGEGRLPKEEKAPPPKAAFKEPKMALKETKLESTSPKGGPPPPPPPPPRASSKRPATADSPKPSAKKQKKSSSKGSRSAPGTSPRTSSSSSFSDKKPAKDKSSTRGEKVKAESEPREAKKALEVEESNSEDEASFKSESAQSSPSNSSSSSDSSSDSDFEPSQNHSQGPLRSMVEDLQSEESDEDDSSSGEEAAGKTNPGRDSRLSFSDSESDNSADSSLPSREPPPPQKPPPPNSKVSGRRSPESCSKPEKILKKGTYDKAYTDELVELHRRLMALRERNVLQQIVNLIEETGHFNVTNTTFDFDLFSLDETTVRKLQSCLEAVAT
Assay: MLLT1 degradation assay in MV4-11 cells (JESS chemiluminescent detection), three concentrations, 24 h
Assay type: cell-based
Conditions: with respect to DMSO control
In short: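 MV4-11 cells treated 24 h at 37° C, 5% CO2 with 1000, 100 and 10 nM compound (0.1% DMSO final). MLLT1 quantified by automated capillary chemiluminescent immunodetection; band peak area expressed as % degradation relative to DMSO control.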

## CN1CCC[C@@H]1c1cc2cnc(NC(=O)c3ccc(OCC4CCN(c5cccc6c5CN(C5CCC(=O)NC5=O)C6=O)CC4)cc3F)cc2[nH]1 (stereo partly drawn) [Example 214, 4-((1-(2-(2,6-dioxopiperidin-3-yl)-1-oxoisoindolin-4-yl)piperidin-4-yl)methoxy)-2-fluoro-N-(2-((R)-1-methylpyrrolidin-2-yl)-1H-pyrrolo[3,2-c]pyridin-6-yl)benzamide]
  MLLT1% Degradation @ 0.01 μM: A (Category A: A ≥ 75% degradation)
  MLLT1% Degradation @ 0.1 μM: A (Category A: A ≥ 75% degradation)
  MLLT1% Degradation @ 1 μM: A (Category A: A ≥ 75% degradation)

## CN1CCC[C@@H]1c1cc2cnc(NC(=O)c3ccc(N4CCC(CN5CCN(c6cccc7c6CN(C6CCC(=O)NC6=O)C7=O)CC5)CC4)cc3)cc2[nH]1 (stereo partly drawn) [Example 92, 4-(4-((4-(2-(2,6-dioxopiperidin-3-yl)-1-oxoisoindolin-4-yl)piperazin-1-yl)methyl)piperidin-1-yl)-N-(2-((R)-1-methylpyrrolidin-2-yl)-1H-pyrrolo[3,2-c]pyridin-6-yl)benzamide]
  MLLT1% Degradation @ 0.01 μM: B (Category B: 50% ≤ B < 75% degradation)
  MLLT1% Degradation @ 0.1 μM: B (Category B: 50% ≤ B < 75% degradation)
  MLLT1% Degradation @ 1 μM: B (Category B: 50% ≤ B < 75% degradation)

## CN1CCC[C@@H]1c1cc2cnc(NC(=O)CCCC3CCCN(c4cccc5c4C(=O)N(C4CCC(=O)NC4=O)C5=O)C3)cc2[nH]1 (stereo partly drawn) [Example 44, 4-(1-(2-(2,6-dioxopiperidin-3-yl)-1,3-dioxoisoindolin-4-yl)piperidin-3-yl)-N-(2-((R)-1-methylpyrrolidin-2-yl)-1H-pyrrolo[3,2-c]pyridin-6-yl)butanamide]
  MLLT1% Degradation @ 0.1 μM: C (Category C: 25% ≤ C < 50% degradation)
  MLLT1% Degradation @ 1 μM: C (Category C: 25% ≤ C < 50% degradation)

## CN1CCC[C@@H]1c1cc2cnc(NC(=O)c3ccc(CCCC#Cc4cccc(C(=O)N[C@H]5CCC(=O)NC5=O)n4)cc3)cc2[nH]1 [Example 97, N—((S)-2,6-dioxopiperidin-3-yl)-6-(5-(4-((2-((R)-1-methylpyrrolidin-2-yl)-1H-pyrrolo[3,2-c]pyridin-6-yl)carbamoyl)phenyl)pent-1-yn-1-yl)picolinamide]
  MLLT1% Degradation @ 0.01 μM: C (Category C: 25% ≤ C < 50% degradation)
  MLLT1% Degradation @ 0.1 μM: B (Category B: 50% ≤ B < 75% degradation)
  MLLT1% Degradation @ 1 μM: B (Category B: 50% ≤ B < 75% degradation)

## COc1nc(N2CCN(CC3CCN(c4cccc5c4CN(C4CCC(=O)NC4=O)C5=O)CC3)CC2)ccc1C(=O)Nc1cc2[nH]c([C@H]3CCCN3C)cc2cn1 (stereo partly drawn) [Example 126, 6-(4-((1-(2-(2,6-dioxopiperidin-3-yl)-1-oxoisoindolin-4-yl)piperidin-4-yl)methyl)piperazin-1-yl)-2-methoxy-N-(2-((R)-1-methylpyrrolidin-2-yl)-1H-pyrrolo[3,2-c]pyridin-6-yl) nicotinamide]
  MLLT1% Degradation @ 0.01 μM: C (Category C: 25% ≤ C < 50% degradation)
  MLLT1% Degradation @ 0.1 μM: C (Category C: 25% ≤ C < 50% degradation)
  MLLT1% Degradation @ 1 μM: C (Category C: 25% ≤ C < 50% degradation)

## CN1CCC[C@@H]1c1cc2cnc(NC(=O)c3ccc(N4CCN(C(=O)CCC5CCN(c6cccc7c6CN(C6CCC(=O)NC6=O)C7=O)CC5)CC4)cc3)cc2[nH]1 (stereo partly drawn) [Example 189, 4-(4-(3-(1-(2-(2,6-dioxopiperidin-3-yl)-1-oxoisoindolin-4-yl)piperidin-4-yl)propanoyl)piperazin-1-yl)-N-(2-((R)-1-methylpyrrolidin-2-yl)-1H-pyrrolo[3,2-c]pyridin-6-yl)benzamide]
  MLLT1% Degradation @ 0.01 μM: B (Category B: 50% ≤ B < 75% degradation)
  MLLT1% Degradation @ 0.1 μM: B (Category B: 50% ≤ B < 75% degradation)
  MLLT1% Degradation @ 1 μM: C (Category C: 25% ≤ C < 50% degradation)

## Cc1cc(OCCC2CCN(c3cccc4c3CN(C3CCC(=O)NC3=O)C4=O)CC2)ccc1C(=O)Nc1cc2[nH]c([C@H]3CCCN3C)cc2cn1 (stereo partly drawn) [Example 204, 4-(2-(1-(2-(2,6-dioxopiperidin-3-yl)-1-oxoisoindolin-4-yl)piperidin-4-yl)ethoxy)-2-methyl-N-(2-((R)-1-methylpyrrolidin-2-yl)-1H-pyrrolo[3,2-c]pyridin-6-yl)benzamide]
  MLLT1% Degradation @ 0.01 μM: C (Category C: 25% ≤ C < 50% degradation)
  MLLT1% Degradation @ 0.1 μM: B (Category B: 50% ≤ B < 75% degradation)
  MLLT1% Degradation @ 1 μM: B (Category B: 50% ≤ B < 75% degradation)

## CN1CCC[C@@H]1c1[nH]c2cc(NC(=O)c3ccc(OCCC4CCN(c5cccc6c5CN(C5CCC(=O)NC5=O)C6=O)CC4)c(F)c3)ncc2c1Cl (stereo partly drawn) [Example 229, N-(3-chloro-2-((R)-1-methylpyrrolidin-2-yl)-1H-pyrrolo[3,2-c]pyridin-6-yl)-4-(2-(1-(2-(2,6-dioxopiperidin-3-yl)-1-oxoisoindolin-4-yl)piperidin-4-yl)ethoxy)-3-fluorobenzamide]
  MLLT1% Degradation @ 0.01 μM: A (Category A: A ≥ 75% degradation)
  MLLT1% Degradation @ 0.1 μM: A (Category A: A ≥ 75% degradation)
  MLLT1% Degradation @ 1 μM: A (Category A: A ≥ 75% degradation)

## CN1CCC[C@@H]1c1cc2cnc(NC(=O)c3cccc(N4CCN(CC5CCN(c6ccc7c(c6)C(=O)N(C6CCC(=O)NC6=O)C7=O)CC5)CC4)c3)cc2[nH]1 (stereo partly drawn) [Example 220, 3-(4-((1-(2-(2,6-dioxopiperidin-3-yl)-1,3-dioxoisoindolin-5-yl)piperidin-4-yl)methyl)piperazin-1-yl)-N-(2-((R)-1-methylpyrrolidin-2-yl)-1H-pyrrolo[3,2-c]pyridin-6-yl)benzamide]
  MLLT1% Degradation @ 0.01 μM: D (Category D: D < 25% degradation)
  MLLT1% Degradation @ 0.1 μM: C (Category C: 25% ≤ C < 50% degradation)
  MLLT1% Degradation @ 1 μM: B (Category B: 50% ≤ B < 75% degradation)

## CN1CCC[C@@H]1c1cc2cnc(NC(=O)c3ccc(N4CCC(OCC5CCN(c6cccc7c6CN(C6CCC(=O)NC6=O)C7=O)CC5)CC4)cc3)cc2[nH]1 (stereo partly drawn) [Example 146, 4-(4-((1-(2-(2,6-dioxopiperidin-3-yl)-1-oxoisoindolin-4-yl)piperidin-4-yl)methoxy)piperidin-1-yl)-N-(2-((R)-1-methylpyrrolidin-2-yl)-1H-pyrrolo[3,2-c]pyridin-6-yl)benzamide]
  MLLT1% Degradation @ 0.01 μM: B (Category B: 50% ≤ B < 75% degradation)
  MLLT1% Degradation @ 0.1 μM: B (Category B: 50% ≤ B < 75% degradation)
  MLLT1% Degradation @ 1 μM: B (Category B: 50% ≤ B < 75% degradation)

## CN1CCC[C@@H]1c1cc2cnc(NC(=O)c3ccc(N4CCC(OC5CCN(c6ccc7c(c6)CN(C6CCC(=O)NC6=O)C7=O)CC5)CC4)nc3)cc2[nH]1 (stereo partly drawn) [Example 139, 6-(4-((1-(2-(2,6-dioxopiperidin-3-yl)-1-oxoisoindolin-5-yl)piperidin-4-yl)oxy)piperidin-1-yl)-N-(2-((R)-1-methylpyrrolidin-2-yl)-1H-pyrrolo[3,2-c]pyridin-6-yl)nicotinamide]
  MLLT1% Degradation @ 0.01 μM: B (Category B: 50% ≤ B < 75% degradation)
  MLLT1% Degradation @ 0.1 μM: B (Category B: 50% ≤ B < 75% degradation)
  MLLT1% Degradation @ 1 μM: B (Category B: 50% ≤ B < 75% degradation)

## CN1CCC[C@@H]1c1cc2cnc(NC(=O)c3ccc(N4CCN(CC5CCN(c6cc7c(cc6F)C(=O)N(C6CCC(=O)NC6=O)C7=O)CC5)CC4)cc3)cc2[nH]1 (stereo partly drawn) [Example 180, 4-(4-((1-(2-(2,6-dioxopiperidin-3-yl)-6-fluoro-1,3-dioxoisoindolin-5-yl)piperidin-4-yl)methyl)piperazin-1-yl)-N-(2-((R)-1-methylpyrrolidin-2-yl)-1H-pyrrolo[3,2-c]pyridin-6-yl)benzamide]
  MLLT1% Degradation @ 0.01 μM: C (Category C: 25% ≤ C < 50% degradation)
  MLLT1% Degradation @ 0.1 μM: B (Category B: 50% ≤ B < 75% degradation)
  MLLT1% Degradation @ 1 μM: B (Category B: 50% ≤ B < 75% degradation)

## CN1CCC[C@@H]1c1cc2cnc(NC(=O)c3ccc(N4CCC(OCC5CCN(c6cccc7c6C(=O)N(C6CCC(=O)NC6=O)C7=O)CC5)CC4)nc3)cc2[nH]1 (stereo partly drawn) [Example 18, 6-(4-((1-(2-(2,6-dioxopiperidin-3-yl)-1,3-dioxoisoindolin-4-yl)piperidin-4-yl)methoxy)piperidin-1-yl)-N-(2-((R)-1-methylpyrrolidin-2-yl)-1H-pyrrolo[3,2-c]pyridin-6-yl)nicotinamide]
  MLLT1% Degradation @ 0.01 μM: B (Category B: 50% ≤ B < 75% degradation)
  MLLT1% Degradation @ 0.1 μM: A (Category A: A ≥ 75% degradation)
  MLLT1% Degradation @ 1 μM: A (Category A: A ≥ 75% degradation)

## CN1CCC[C@@H]1c1cc2cnc(NC(=O)CCCCCCCCNc3cccc4c3C(=O)N(C3CCC(=O)NC3=O)C4=O)cc2[nH]1 (stereo partly drawn) [Example 30, 9-{[2-(2,6-dioxopiperidin-3-yl)-1,3-dioxoisoindol-4-yl]amino}-N-{2-[(2R)-1-methylpyrrolidin-2-yl]-1H-pyrrolo[3,2-c]pyridin-6-yl}nonanamide]
  MLLT1% Degradation @ 0.01 μM: C (Category C: 25% ≤ C < 50% degradation)
  MLLT1% Degradation @ 0.1 μM: B (Category B: 50% ≤ B < 75% degradation)
  MLLT1% Degradation @ 1 μM: A (Category A: A ≥ 75% degradation)

— patent publication US20260191968A1, “PROTAC DEGRADERS OF MLLT1 AND/OR MLLT3” (DARK BLUE THERAPEUTICS LTD, priority 2024, published 2026)
